Key:
Type in all cases: in vivo
[1] = test system: redroot pigweed (Amaranthus retroflexus, AMARE); assay: Pre-emerge test, greenhouse herbicide activity screening; details: rated 14 days after application, 0 = no damage, 100 = complete death
Procedure, shortened: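 Rating: 0–100 visual injury, 14 DAA. Application: acetone, 187 l/ha, 15–1000 g ai/ha, flat-fan track sprayer with nozzle 40–45 cm above soil or canopy. Post-emerge runs used 0.25% v/v surfactant on 2–3 leaf plants.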

[2] = test system: large crabgrass (Digitaria sanguinalis, DIGSA); assay: as above; details: rated 14 days after application, 0 = no damage, 100 = complete death
Procedure, shortened: (§1)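 Herbicidal damage is scored 0 (none) to 100 (complete plant death) two weeks after a simulated field spray. Rates span 15–1000 g ai/ha, delivered in acetone at 187 l/ha. For post-emergence treatments, plants have 2–3 leaves and the spray carries 0.25% v/v non-ionic surfactant.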

[3] = test system: sicklepod (Cassia obtusifolia, CASOB); assay: as above; details: rated 14 days after application, 0 = no damage, 100 = complete death
Procedure, shortened: as §1

[4] = test system: velvetleaf (Abutilon theophrasti, ABUTH); assay: as above; details: rated 14 days after application, 0 = no damage, 100 = complete death
Procedure, shortened: as §1

[5] = test system: barnyardgrass (Echinochloa crus-galli, ECHCG); assay: as above; details: rated 14 days after application, 0 = no damage, 100 = complete death
Procedure, shortened: as §1

[6] = test system: green foxtail (Setaria viridis, SETVI); assay: as above; details: rated 14 days after application, 0 = no damage, 100 = complete death
Procedure, shortened: as §1

[7] = test system: common ragweed (Ambrosia artemisizfolia L., AMBEL); assay: as above; details: rated 14 days after application, 0 = no damage, 100 = complete death
Procedure, shortened: as §1

[8] = test system: ivyleaf morningglory (Ipomoea hederacea, IPOHE); assay: as above; details: rated 14 days after application, 0 = no damage, 100 = complete death
Procedure, shortened: as §1

[9] = test system: johnsongrass (Sorghum halepense, SORHA); assay: as above; details: rated 14 days after application, 0 = no damage, 100 = complete death
Procedure, shortened: as §1

[10] = test system: lambsquarters (Chenopodium album, CHEAL); assay: as above; details: rated 14 days after application, 0 = no damage, 100 = complete death
Procedure, shortened: as §1

[11] = test system: upland rice (Oryza sp., var. Tebonnet, RICE); assay: Pre-emerge test, crop safety; details: rated 14 days after application, 0 = no damage, 100 = complete death
Procedure, shortened: (§2)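 Compounds in acetone were track-sprayed at 187 l/ha, 15–1000 g ai/ha, onto sandy loam pots. Pre-emerge seeds were sown one day before spraying, with surface watering afterwards. Post-emerge plants were at the 2–3 leaf stage and sprayed with 0.25% v/v non-ionic surfactant. Injury was rated 0–100 at 14 days.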

[12] = test system: field corn (Zea mays L., var. Dekalb 535, CORN); assay: Pre-emerge test, crop safety; details: rated 14 days after application, 0 = no damage, 100 = complete death
Procedure, shortened: as §2

[13] = test system: large crabgrass (Digitaria sanguinalis, DIGSA); assay: Post-emerge test, greenhouse herbicide activity screening; details: phytotoxicity rating 0-100 (0 no damage, 100 complete death), 14 days after application
Procedure, shortened: (§3)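 Visual ratings on a 0-100 scale (0 no damage, 100 all plants dead) were taken at 14 days after treatment. Rates of 15-1000 g ai/ha in acetone, 187 l/ha, were sprayed onto soil one day after planting (pre-emerge) or onto 2-3 leaf plants with 0.25% v/v surfactant (post-emerge).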

[14] = test system: sicklepod (Cassia obtusifolia, CASOB); assay: as above; details: phytotoxicity rating 0-100 (0 no damage, 100 complete death), 14 days after application
Procedure, shortened: as §3

[15] = test system: velvetleaf (Abutilon theophrasti, ABUTH); assay: as above; details: phytotoxicity rating 0-100 (0 no damage, 100 complete death), 14 days after application
Procedure, shortened: as §3

[16] = test system: barnyardgrass (Echinochloa crus-galli, ECHCG); assay: as above; details: phytotoxicity rating 0-100 (0 no damage, 100 complete death), 14 days after application
Procedure, shortened: as §3

[17] = test system: redroot pigweed (Amaranthus retroflexus, AMARE); assay: as above; details: phytotoxicity rating 0-100 (0 no damage, 100 complete death), 14 days after application
Procedure, shortened: as §3

[18] = test system: green foxtail (Setaria viridis, SETVI); assay: as above; details: phytotoxicity rating 0-100 (0 no damage, 100 complete death), 14 days after application
Procedure, shortened: as §3

[19] = test system: common ragweed (Ambrosia artemisizfolia L., AMBEL); assay: as above; details: phytotoxicity rating 0-100 (0 no damage, 100 complete death), 14 days after application
Procedure, shortened: as §3

[20] = test system: ivyleaf morningglory (Ipomoea hederacea, IPOHE); assay: as above; details: phytotoxicity rating 0-100 (0 no damage, 100 complete death), 14 days after application
Procedure, shortened: as §3

[21] = test system: johnsongrass (Sorghum halepense, SORHA); assay: as above; details: phytotoxicity rating 0-100 (0 no damage, 100 complete death), 14 days after application
Procedure, shortened: as §3

[22] = test system: lambsquarters (Chenopodium album, CHEAL); assay: as above; details: phytotoxicity rating 0-100 (0 no damage, 100 complete death), 14 days after application
Procedure, shortened: as §3

[23] = test system: upland rice (Oryza sp., var. Tebonnet, RICE); assay: Post-emerge test, crop safety; details: phytotoxicity rating 0-100 (0 no damage, 100 complete death), 14 days after application
Procedure, shortened: as §1

[24] = test system: field corn (Zea mays L., var. Dekalb 535, CORN); assay: Post-emerge test, crop safety; details: phytotoxicity rating 0-100 (0 no damage, 100 complete death), 14 days after application
Procedure, shortened: as §1

CCOc1ccc(C(=O)Nc2c(OC)c(Cl)cc(F)c2-n2c(=O)cc(C(F)(F)F)n(C)c2=O)cc1 [2-64]
Pre-emerge Herbicidal Activity, phytotoxicity rating (0-100), AMARE ([1]; 63 g ai/ha): 90
Pre-emerge Herbicidal Activity, phytotoxicity rating (0-100), AMARE ([1]; 250 g ai/ha): 100
Pre-emerge Herbicidal Activity, phytotoxicity rating (0-100), DIGSA ([2]; 63 g ai/ha): 40
Pre-emerge Herbicidal Activity, phytotoxicity rating (0-100), DIGSA ([2]; 250 g ai/ha): 70
Pre-emerge Herbicidal Activity, phytotoxicity rating (0-100), CASOB ([3]; 63 g ai/ha): 0
Pre-emerge Herbicidal Activity, phytotoxicity rating (0-100), CASOB ([3]; 250 g ai/ha): 100
Pre-emerge Herbicidal Activity, phytotoxicity rating (0-100), ABUTH ([4]; 63 g ai/ha): 100
Pre-emerge Herbicidal Activity, phytotoxicity rating (0-100), ABUTH ([4]; 250 g ai/ha): 100
Pre-emerge Herbicidal Activity, phytotoxicity rating (0-100), ECHCG ([5]; 63 g ai/ha): 0
Pre-emerge Herbicidal Activity, phytotoxicity rating (0-100), ECHCG ([5]; 250 g ai/ha): 60
Pre-emerge Herbicidal Activity, phytotoxicity rating (0-100), SETVI ([6]; 63 g ai/ha): 100
Pre-emerge Herbicidal Activity, phytotoxicity rating (0-100), SETVI ([6]; 250 g ai/ha): 100
Pre-emerge Herbicidal Activity, phytotoxicity rating (0-100), AMBEL ([7]; 63 g ai/ha): 0
Pre-emerge Herbicidal Activity, phytotoxicity rating (0-100), AMBEL ([7]; 250 g ai/ha): 60
Pre-emerge Herbicidal Activity, phytotoxicity rating (0-100), IPOHE ([8]; 63 g ai/ha): 0
Pre-emerge Herbicidal Activity, phytotoxicity rating (0-100), IPOHE ([8]; 250 g ai/ha): 40
Pre-emerge Herbicidal Activity, phytotoxicity rating (0-100), SORHA ([9]; 63 g ai/ha): 10
Pre-emerge Herbicidal Activity, phytotoxicity rating (0-100), SORHA ([9]; 250 g ai/ha): 50
Pre-emerge Herbicidal Activity, phytotoxicity rating (0-100), CHEAL ([10]; 63 g ai/ha): 90
Pre-emerge Herbicidal Activity, phytotoxicity rating (0-100), CHEAL ([10]; 250 g ai/ha): 100
Pre-emerge phytotoxicity rating (0-100), crop damage, RICE ([11]; 63 g ai/ha): 10
Pre-emerge phytotoxicity rating (0-100), crop damage, RICE ([11]; 250 g ai/ha): 60
Pre-emerge phytotoxicity rating (0-100), crop damage, CORN ([12]; 63 g ai/ha): 0
Pre-emerge phytotoxicity rating (0-100), crop damage, CORN ([12]; 250 g ai/ha): 35

COc1c(Cl)cc(F)c(-n2c(=O)cc(C(F)(F)F)n(C)c2=O)c1N=C(Cl)C(Cl)(Cl)Cl [Compound 1-30]
Pre-emerge Herbicidal Activity AMARE (phytotoxicity rating, scale 0-100) ([1]; 63 g ai/ha): 0
Pre-emerge Herbicidal Activity AMARE (phytotoxicity rating, scale 0-100) ([1]; 250 g ai/ha): 60
Post-emerge Herbicidal Activity DIGSA ([13]; 63 g ai/ha): 0
Post-emerge Herbicidal Activity DIGSA ([13]; 250 g ai/ha): 0
Post-emerge Herbicidal Activity CASOB ([14]; 63 g ai/ha): 0
Post-emerge Herbicidal Activity CASOB ([14]; 250 g ai/ha): 30
Post-emerge Herbicidal Activity ABUTH ([15]; 63 g ai/ha): 30
Post-emerge Herbicidal Activity ABUTH ([15]; 250 g ai/ha): 100
Post-emerge Herbicidal Activity ECHCG ([16]; 63 g ai/ha): 0
Post-emerge Herbicidal Activity ECHCG ([16]; 250 g ai/ha): 0
Post-emerge Herbicidal Activity AMARE ([17]; 63 g ai/ha): 10
Post-emerge Herbicidal Activity AMARE ([17]; 250 g ai/ha): 30
Post-emerge Herbicidal Activity SETVI ([18]; 63 g ai/ha): 0
Post-emerge Herbicidal Activity SETVI ([18]; 250 g ai/ha): 0
Post-emerge Herbicidal Activity AMBEL ([19]; 63 g ai/ha): 0
Post-emerge Herbicidal Activity AMBEL ([19]; 250 g ai/ha): 70
Post-emerge Herbicidal Activity IPOHE ([20]; 63 g ai/ha): 20
Post-emerge Herbicidal Activity IPOHE ([20]; 250 g ai/ha): 100
Post-emerge Herbicidal Activity SORHA ([21]; 63 g ai/ha): 0
Post-emerge Herbicidal Activity SORHA ([21]; 250 g ai/ha): 0
Post-emerge Herbicidal Activity CHEAL ([22]; 63 g ai/ha): 0
Post-emerge Herbicidal Activity CHEAL ([22]; 250 g ai/ha): 60
Pre-emerge Herbicidal Activity DIGSA (phytotoxicity rating, scale 0-100) ([2]; 63 g ai/ha): 0
Pre-emerge Herbicidal Activity DIGSA (phytotoxicity rating, scale 0-100) ([2]; 250 g ai/ha): 90
Pre-emerge Herbicidal Activity CASOB (phytotoxicity rating, scale 0-100) ([3]; 63 g ai/ha): 0
Pre-emerge Herbicidal Activity CASOB (phytotoxicity rating, scale 0-100) ([3]; 250 g ai/ha): 70
Pre-emerge Herbicidal Activity ABUTH (phytotoxicity rating, scale 0-100) ([4]; 63 g ai/ha): 50
Pre-emerge Herbicidal Activity ABUTH (phytotoxicity rating, scale 0-100) ([4]; 250 g ai/ha): 100
Pre-emerge Herbicidal Activity ECHCG (phytotoxicity rating, scale 0-100) ([5]; 63 g ai/ha): 0
Pre-emerge Herbicidal Activity ECHCG (phytotoxicity rating, scale 0-100) ([5]; 250 g ai/ha): 0
Pre-emerge Herbicidal Activity SETVI (phytotoxicity rating, scale 0-100) ([6]; 63 g ai/ha): 10
Pre-emerge Herbicidal Activity SETVI (phytotoxicity rating, scale 0-100) ([6]; 250 g ai/ha): 100
Pre-emerge Herbicidal Activity IPOHE (phytotoxicity rating, scale 0-100) ([8]; 63 g ai/ha): 0
Pre-emerge Herbicidal Activity IPOHE (phytotoxicity rating, scale 0-100) ([8]; 250 g ai/ha): 70
Pre-emerge Herbicidal Activity SORHA (phytotoxicity rating, scale 0-100) ([9]; 63 g ai/ha): 0
Pre-emerge Herbicidal Activity SORHA (phytotoxicity rating, scale 0-100) ([9]; 250 g ai/ha): 10
Pre-emerge Herbicidal Activity CHEAL (phytotoxicity rating, scale 0-100) ([10]; 63 g ai/ha): 85
Pre-emerge Herbicidal Activity CHEAL (phytotoxicity rating, scale 0-100) ([10]; 250 g ai/ha): 100
Post-emerge Herbicidal Activity RICE (crop damage) ([23]; 63 g ai/ha): 0
Post-emerge Herbicidal Activity RICE (crop damage) ([23]; 250 g ai/ha): 20
Post-emerge Herbicidal Activity CORN (crop damage) ([24]; 63 g ai/ha): 0
Post-emerge Herbicidal Activity CORN (crop damage) ([24]; 250 g ai/ha): 10
Pre-emerge crop damage RICE (phytotoxicity rating, scale 0-100) ([11]; 63 g ai/ha): 10
Pre-emerge crop damage RICE (phytotoxicity rating, scale 0-100) ([11]; 250 g ai/ha): 30
Pre-emerge crop damage CORN (phytotoxicity rating, scale 0-100) ([12]; 63 g ai/ha): 0
Pre-emerge crop damage CORN (phytotoxicity rating, scale 0-100) ([12]; 250 g ai/ha): 10
